Data: patent publication US10456407B2, “Combination therapy for treating cancer” (Epizyme, Inc., priority 2015, dated 2019)

Experiments:
[1] = tested on: RP-R-02LM ccRCC PDX; type: in vivo; conditions: tumors at primary site
Protocol: Mice bearing human ccRCC patient derived xenograft (PDXs); RP-R-01, RP-R-02 and RP-R-02LM (a metastatic ccRCC model established from RP-R-02) were implanted into SCID mice. […] Tumors volumes and body weight were assessed once per week. Tumor tissues and lungs were collected for immunohistochemistry analysis. All assessments and quantification were done blindly.

[2] = tested on: DOHH2 cells; conditions: DOHH2 (WT EZH2 GCB); drug combined with Compound 44
Protocol: (§1) After 3 days of co-treatment, cell viability was measured via ATP content using CellTiter-Glo®
(§2) Synergy quantification is performed using the Chou-Talalay method^3 for drug combination. The Combination Index (CI) equation offers a quantitative definition for additivity (CI=1), synergism (CI<1), and antagonism (CI>1). This equation used Fa values from a constant ratio of drug combination to determine CI values. […] These Fa-CI plots are generated using the Calcusyn software.
(§3) After 3 days of co-treatment (5 days for Toledo assays), cell viability was measured via ATP content using CellTiter-Glo® (Promega) and luminescence was detected using a SpectraMax M5 microplate reader (Molecular Devices).
as §2, with “Chou-Talalay method” for “Chou-Talalay method^3”, “drug combination (Ref 1).” for “drug combination.”, “used fractional effect (Fa)” for “used Fa”, “Calcusyn for Windows software (Ref2).” for “Calcusyn software.”
(§4) Dose responses were plotted using Graphpad Prism and either 50% or 60% inhibitory concentrations were interpolated from the dose response curves.

[3] = tested on: SU-DHL10 cells; conditions: for growth inhibition by the drug by itself: SU-DHL10, single agent
Protocol: as §1, §2, §3
as §2, with “Chou-Talalay method” for “Chou-Talalay method^3”, “drug combination (Ref 1).” for “drug combination.”, “used fractional effect (Fa)” for “used Fa”, “Calcusyn for Windows software (Ref2).” for “Calcusyn software.”
as §4

[4] = tested on: Toledo cells; conditions: Toledo (WT EZH2 ABC); drug combined with Compound 44
Protocol: as §1, §2, §3
as §2, with “Chou-Talalay method” for “Chou-Talalay method^3”, “drug combination (Ref 1).” for “drug combination.”, “used fractional effect (Fa)” for “used Fa”, “Calcusyn for Windows software (Ref2).” for “Calcusyn software.”
as §4

[5] = tested on: WSU-DLCL2 cells; conditions: for growth inhibition by the drug by itself: WSU-DLCL2, single agent
Protocol: as §1, §2, §3
as §2, with “Chou-Talalay method” for “Chou-Talalay method^3”, “drug combination (Ref 1).” for “drug combination.”, “used fractional effect (Fa)” for “used Fa”, “Calcusyn for Windows software (Ref2).” for “Calcusyn software.”
as §4

[6] = due to its cardiotoxicity; cited from earlier work
[7] = tested on: EZH2 mutant lymphoma cell line; experiment: Combination assay with targeted therapies (pre-treatment model A, Calcusyn), EZH2 mutant lymphoma cell line; type: cell-based; conditions: pretreatment model A, combined with Compound 44
Source text: Statistically significant CI values for synergy are for example those CI value<1 with the confidence interval lines also below 1.
CI values<1 with confidence interval lines also below 1 indicate statistically significant synergism.

[8] = SU-DHL 10 (EZH2 mutant GCB), drug combined with Compound 44
[9] = WSU-DLCL2 (EZH2 mutant GCB), drug combined with Compound 44

SMILES	Summary of Combinations with Compound 44 (combination effect) [4]	Summary of Combinations with Compound 44 (combination effect) [2]	Summary of Combinations with Compound 44 (combination effect) [3, 8]	growth inhibition by the drug by itself [3]	Summary of Combinations with Compound 44 (combination effect) [5, 9]	growth inhibition by the drug by itself [5]	synergy in combination with Compound 44 [7]	further results
CCN(c1cc(C#CCN2CCOCC2)cc(C(=O)NCc2c(C)cc(C)[nH]c2=O)c1C)C1CCC(N(C)CCOC)CC1 (centres unmarked) [Compound B]	–	–	–	–	–	–	–	cell proliferation (Ki67 stain) [1]: Decreased cell proliferation
C[C@@H]1C[C@H]2[C@@H]3CCC4=CC(=O)C=C[C@]4(C)[C@@]3(F)[C@@H](O)C[C@]2(C)[C@@]1(O)C(=O)CO [Dexamethasone, dexamethasone]	no effect	–	–	–	–	–	–	Summary of Combinations with Compound 44: potency enhanced [2]: potency enhanced 4x; Summary of Combinations with Compound 44: potency enhanced [3, 8]: potency enhanced 5x; Summary of Combinations with Compound 44: potency enhanced [5, 9]: 15x
COc1cccc2c1C(=O)c1c(O)c3c(c(O)c1C2=O)C[C@@](O)(C(=O)CO)C[C@@H]3O[C@H]1C[C@H](N)[C@H](O)[C@H](C)O1 [Doxurubicin, doxorubicin]	no effect	no effect	additive (Cl = 1 additive)	concentration-dependent growth inhibition	synergy (Cl < 1 synergy)	concentration-dependent growth inhibition	–	lifetime cumulative dosing limit [6]: < 550 mg/m^2
CC1(C)CCC(c2ccc(Cl)cc2)=C(CN2CCN(c3ccc(C(=O)NS(=O)(=O)c4ccc(N[C@H](CCN5CCOCC5)CSc5ccccc5)c(S(=O)(=O)C(F)(F)F)c4)cc3)CC2)C1 [Navitoclax]	–	–	–	–	–	–	Very strong synergy	–
CC[C@]1(O)C[C@H]2CN(CCc3c([nH]c4ccccc34)[C@@](C(=O)OC)(c3cc4c(cc3OC)N(C=O)[C@H]3[C@@](O)(C(=O)OC)[C@H](OC(C)=O)[C@]5(CC)C=CCN6CC[C@]43[C@@H]65)C2)C1 [Vincristine, vincristine]	no effect	no effect	additive (Cl = 1 additive)	concentration-dependent growth inhibition	additive (Cl = 1 additive)	concentration-dependent growth inhibition	–	–
CO[C@H]1C[C@@H]2CC[C@@H](C)[C@@](O)(O2)C(=O)C(=O)N2CCCC[C@H]2C(=O)O[C@H]([C@H](C)C[C@@H]2CC[C@@H](OCCO)[C@H](OC)C2)CC(=O)[C@H](C)/C=C(\C)[C@@H](O)[C@@H](OC)C(=O)[C@H](C)C[C@H](C)/C=C/C=C/C=C/1C [everolimus]	–	–	–	–	–	–	Very strong synergy	–
